Where two headings read alike, the source gives them in different places.
Tests used:
anaesthetized dog = assay: Antiangorous activity on anaesthetized dog: consumption of oxygen in the left ventricule and cardiac effort (KATZ's index); assay type: in vivo; settings: for inhibition in vivo at 2.5 mg/kg / inhibition in vivo at […] / inhibition in vivo at 2.3 mg/kg / inhibition in vivo at 0.54 mg/kg: Canis lupus familiaris, iv; for inhibition in vivo at […]: 0.15 mg/kg i.v. slow perfusion
Procedure: The antiangorous activity was tested on an anaesthetized dog (sodium pentobarbital 30 mg/kg/i.v.).
The consumption of oxygen in the left ventricule was estimated by the product of the coronary venous flow and the coronary arteriovenous difference in oxygen (% volume).
The coronary venous flow was measured at the coronary venous sinus by means of a modified Morawitz cannula, introduced under radioscopic control.
The cardiac effort was estimated according to KATZ's index, by the product of the average arterial pressure and the cardiac frequency.
The cardiac frequency was estimated from the electrocardiogram recorded with D2 derivation.
It should be noted that the compounds tested were injected intravenously with slow perfusion.

in vivo = settings: iv; for mortality: read-out: Toxicity (Mortality); for LD50: read-out: Toxicity: LD50
Excerpt: *LD50 or percentage of mortality which is given between brackets

[1] = 2.5 mg/kg i.v. slow perfusion, read-out: Diminution in consumption of O2
[2] = 2.5 mg/kg i.v. slow perfusion, read-out: Diminution in the cardiac effort (IK)
[3] = read-out: Diminution in consumption of O2
[4] = read-out: Diminution in the cardiac effort (IK)
[5] = 2.3 mg/kg i.v. slow perfusion, read-out: Diminution in consumption of O2
[6] = 2.3 mg/kg i.v. slow perfusion, read-out: Diminution in the cardiac effort (IK)

SMILES | Diminution in consumption of O2: in time (anaesthetized dog; 2.5 mg/kg i.v. slow perfusion) | inhibition in vivo at 2.5 mg/kg (anaesthetized dog; [1]) | inhibition in vivo at 2.5 mg/kg (anaesthetized dog; [2]) | mortality (in vivo; 400 mg/kg i.v.) | Diminution in consumption of O2: in time (anaesthetized dog; 2.3 mg/kg i.v. slow perfusion) | Diminution in the cardiac effort (IK): in time (anaesthetized dog; 2.3 mg/kg i.v. slow perfusion) | inhibition in vivo at 2.3 mg/kg (anaesthetized dog; [5]) | inhibition in vivo at 2.3 mg/kg (anaesthetized dog; [6]) | LD50 (in vivo) | other results
CNC(=O)Nc1ccc(OCCCN2CCN(C(=O)/C=C/c3cc(OC)c(OC)c(OC)c3)CC2)c2c1OCCO2 [780 040] | 15 min | 59% | 9% | 30% | – | – | – | – | – | –
COc1cc(/C=C/C(=O)N2CCN(CC(O)COc3ccc(C(=O)Nc4ccccc4)c4c3OCCO4)CC2)cc(OC)c1OC (stereo not drawn) [770 848] | – | – | – | 10% | – | – | – | – | – | inhibition in vivo at […] (anaesthetized dog; [3]): 41%; inhibition in vivo at […] (anaesthetized dog; [4]): 5%
COc1cc(/C=C/C(=O)N2CCN(CC(O)COc3cc(OC)c(OC)c(OC)c3)CC2)cc(OC)c1OC (stereo not drawn) [760 506] | – | – | – | – | 60 min | 60 min | 67% | 26% | 182 mg/kg | –
COc1cc(/C=C/C(=O)N2CCN(CC(O)COc3ccc(NC(C)=O)c4c3CCCC4)CC2)cc(OC)c1OC (stereo not drawn) [780 044] | 30 min | 49% | 36% | 10% | – | – | – | – | – | Diminution in the cardiac effort (IK): in time (anaesthetized dog; 2.5 mg/kg i.v. slow perfusion): 15 min
CCNC(=O)Nc1ccc(OCC(O)CN2CCN(C(=O)/C=C/c3cc(OC)c(OC)c(OC)c3)CC2)c2c1OCCO2 (stereo not drawn) [770 307] | – | – | – | – | – | – | – | – | – | inhibition in vivo at […] (anaesthetized dog; [3]): 43%; inhibition in vivo at […] (anaesthetized dog; [4]): 11%; mortality (in vivo; 367 mg/kg i.v.): 10%
COc1cc(/C=C/C(=O)N2CCN(CC(O)COc3ccccc3NC(C)=O)CC2)cc(OC)c1OC (stereo not drawn) [770 738] | 45 min | 63% | 48% | 40% | – | – | – | – | – | Diminution in the cardiac effort (IK): in time (anaesthetized dog; 2.5 mg/kg i.v. slow perfusion): 45 min
COc1cc(/C=C/C(=O)N2CCN(CC(O)COc3ccccc3F)CC2)cc(OC)c1OC (stereo not drawn) [760 619] | – | – | – | – | 30 min | 30 min | 55% | 44% | 158 mg/kg | –
COc1cc(/C=C/C(=O)N2CCN(CC(O)COc3cccc(C#N)c3)CC2)cc(OC)c1OC (stereo not drawn) [760 784] | – | – | – | – | 30 min | 30 min | 44% | 12% | 372 mg/kg | –
COc1cccc(SCC(O)CN2CCN(C(=O)/C=C/c3cc(OC)c(OC)c(OC)c3)CC2)c1 (stereo not drawn) [770 112] | – | – | – | – | 23 min | 15 min | 34% | 7% | 224 mg/kg | –
COc1cc(/C=C/C(=O)N2CCN(CC(O)COc3ccc(C(C)C)cc3)CC2)cc(OC)c1OC (stereo not drawn) [770 858] | – | – | – | – | – | – | – | – | 260 mg/kg | inhibition in vivo at […] (anaesthetized dog; [3]): 16%; inhibition in vivo at […] (anaesthetized dog; [4]): 15%
CCOc1c(OC)cc(/C=C/C(=O)N2CCN(CC(O)COc3ccc(C(C)=O)c4c3OCCO4)CC2)cc1OC (stereo not drawn) [770 504] | 15 min | 52% | 10% | – | – | – | – | – | 145 mg/kg | –
CNC(=O)c1ccc(OCC(O)CN2CCN(C(=O)/C=C/c3cc(OC)c(OC)c(OC)c3)CC2)c2c1OCCO2 (stereo not drawn) [760 710] | – | – | – | – | – | – | – | – | – | Diminution in consumption of O2: in time (anaesthetized dog; 0.54 mg/kg i.v. slow perfusion): 60 min; Diminution in the cardiac effort (IK): in time (anaesthetized dog; 0.54 mg/kg i.v. slow perfusion): 30 min; inhibition in vivo at 0.54 mg/kg (anaesthetized dog; 0.54 mg/kg i.v. slow perfusion, read-out: Diminution in consumption of O2): 64%; inhibition in vivo at 0.54 mg/kg (anaesthetized dog; 0.54 mg/kg i.v. slow perfusion, read-out: Diminution in the cardiac effort (IK)): 36%; mortality (in vivo; 345 mg/kg i.v.): 70%
CNC(=O)Nc1ccc(OCC(O)CN2CCN(C(=O)/C=C/c3cc(OC)c(OC)c(OC)c3)CC2)cc1C (stereo not drawn) [770 898] | 45 min | 45% | 36% | 0% | – | – | – | – | – | Diminution in the cardiac effort (IK): in time (anaesthetized dog; 2.5 mg/kg i.v. slow perfusion): 38 min
